Laboratory results taken from patent publication US20220380801A1, “TRIPARTITE SYSTEMS FOR PROTEIN DIMERIZATION AND METHODS OF USE” (priority 2019, published 2022).

Columns and labels:
[1] = test system: IL-2 production by split CAR-expressing Jurkat cells; assay: Split chimeric antigen receptor activation assay; type: cell-based
Excerpt: A chimeric antigen receptor (CAR), a synthetic, genetically engineered version of a T-cell receptor, can direct the activation of immune cells in response to user-defined targets via target-specific recognition domains, e.g. a single chain variable antibody fragment (scFv). These multi-domain, synthetic proteins are typically constructed by fusion of the target recognition domain to a transmembrane domain, T-cell receptor co-stimulatory domain and a C-terminal CD3 zeta cytoplasmic activation domain. A split-CAR can be generated by expressing the target recognition/transmembrane/co-stimulatory domain and the CD3 zeta activation domain as two separate proteins. […]
Lentiviral particles encoding each split CAR were generated using the pPACKH1 HIV lentivector packaging kit (Systems Bioscience), according to the manufacturer's protocol. […] Split CAR-transduced Jurkat cell pools were FACS-sorted based on GFP fluorescence to achieve equivalent expression levels for both the FKBP12:FRB and HCV NS3/4A PR (S139A):PRSIM_23 CARs before functional testing. Activation of the split-CAR-expressing Jurkat cells can be measured by interleukin-2 (IL-2) production after stimulation of the CAR (Smith-Garvin, Koretzky, and Jordan 2009). […]

[2] = test system: Caspase 3 activity in kill switch-transduced HCT116 cells; assay: Kill switch Caspase 3 functional assay; type: cell-based, human; conditions: 10 nM simeprevir, relative to non-transduced cells
Method: HCT116 and HT29 transduced cells were generated following the same protocol with exception of using McCoy's 5A medium+10% foetal bovine serum as growth medium, supplemented with 2 μg/ml puromycin for selection of transduced cells.
Functional Caspase 9 activates Caspase 3, and this proteolytic activity can be determined using cleavage of non-fluorescent substrate DEVD-AMC into cleavage products DEVD and fluorescent AMC, such that AMC fluorescence signal at 430 nm is proportional to Caspase 3 activity. For the Caspase 3 assay, cells were plated in duplicate onto 6 well tissue-culture treated plates. 24 h later, one of the duplicate wells was treated with 10 nM simeprevir for 3 h. Cells lysates were analysed in triplicate using a Caspase 3 assay from BD Biosciences according to manufacturer's instruction with the modification that total protein input was normalised to 50 μg by BCA assay (LifeTechnologies). Fluorescence was determined on an Envision plate reader (PerkinElmer), Ex: 380 nm, Em: 430 nm. For quantification, RFU (raw fluorescence value) for wells that contained only the assay substrate were subtracted from all RFU derived from assay samples. Results were normalised to non-transduced, simeprevir-treated cells. Analysis was performed in Prism (GraphPad) using a One-Way-Anova followed by multiple comparisons.

[3] = test system: endogenous IL-2 gene in HEK293 cells; assay: Endogenous gene regulation assay (CRISPRa); type: cell-based, human; conditions: 300 nM simeprevir, split dCas9/AD cassette and IL-2 targeted gRNA
Excerpt: CRISPRa relies on the use of a dead Cas9 enzyme (dCas9) with no endonuclease activity to bind to a target site within the promoter region of an endogenous gene via a single guide RNA. Upon recruitment of a transcriptional activator, transcription of the endogenous gene is initiated.
The dCas9 and AD are separately fused to the two protein components of the CID such that, only in the presence of the small molecule inducer, the AD is brought into close proximity to dCas9, allowing recruitment of the transcription machinery to the promoter region of an endogenous gene via a single guide RNA (sgRNA). In this example, an activation plasmid was generated consisting of two functional units; an AD fused to the HCV NS3/4A PR (S139A) (SEQ ID 226) and a dCas9 fused to three tandem copies of PRSIM-23 (SEQ ID 228). The sequences are preceded by a CMV promoter and separated by an internal ribosome entry site (IRES). A gRNA plasmid was generated by golden gate assembly, utilising BsaI. […]
Transcriptional regulation assays were performed in adherent HEK293 cells cultured in 96-well plates. Cells enzymatically dissociated from a tissue culture flask were counted and plated at 2.5×10^4 cells/well. […] 72 hours post-treatment (day 6), the cell supernatant was harvested and IL-2 quantified using a V-PLEX Human IL-2 Kit (Meso Scale Discovery), as per the manufacturer's protocol.

With COc1ccc2c(O[C@@H]3C[C@H]4C(=O)N[C@]5(C(=O)NS(=O)(=O)C6CC6)C[C@H]5/C=C\CCCCN(C)C(=O)[C@@H]4C3)cc(-c3nc(C(C)C)cs3)nc2c1C [simeprevir] the “activation of CAR-expressing Jurkat cells (IL-2 production)” value ([1]; co-culture with antigen-negative A375 cells) was “no activation”, the “activation of CAR-expressing Jurkat cells (IL-2 production)” value ([1]; co-culture with antigen-positive HepG2 cells) was “dose-dependent activation” and the “Caspase 3 activity” value [2] was “significantly (p<0.0001) up-regulated”. For the same molecule, the IL-2 secretion [3] was “resulted in secretion of IL-2”.
